Measurements as given in patent US7147824B2, “Method for suppressing growth of mycobacteria in metalworking fluids” (priority 2003, dated 2006).
Converted amounts (≈) assume the structure as drawn.

Tests used:
[1] = system: Mycobacterium immunogenum isolate; settings: Mycobacterium immunogenum isolate from MWF (ATCC 700506); cited from earlier work
[2] = system: Mycobacterium immunogenum MWF isolates; test: Anti-mycobacterial activity in MWF, plating on Mycoagar; type: cell-based; settings: MCC added to a MWF 24 hours after the isothiazolones had been added
Experimental: The MWFs selected were fluids which had evidence of CMIT incompatibility. The MCC was added to the MWFs 24 hours before the CMIT was added; 24 hours after the CMIT was added; or in a mixture with the CMIT. This was done for each concentration of CMIT (7.5 and 15 ppm) and MCC (250 and 500 ppm). Controls consisted of no biocide and CMIT at 7.5 and 15 ppm. Stability of the isothiazolones was evaluated at time 0 and then after 24 and 48 hours by standard methods for detecting isothiazones. Plating for mycobacteria kill was performed with aliquots from time 0 and 48 hours.
Plating was performed on 100 mm petri dishes containing 20 mL of an appropriate agar. Two different formulations, both based on Plate Count Agar (standard methods for waste and waste water). The medium for recovery of Mycobacterium immunogenum is nutritionally supplemented with TWEEN 80 and glycerin and has three antibiotics (cyclohexamide, chloramphenicol, and gentimicin) to inhibit fungi and unwanted bacteria. This medium with agar is referred to herein as “Mycoagar.”
The MWFs selected were fluids which had evidence of CMIT incompatibility. The MCC was added to the MWFs 24 hours before the CMIT was added at 15 ppm. Stability was evaluated at time 0 and then after 24 and 48 hours by chemical analysis. Plating for mycobacteria kill was performed with aliquots from time O and after 48 hours.

In the case of CO[C@@]1(NC(=O)Cc2cccs2)C(=O)N2C(C(=O)O)=C(COC(N)=O)CS[C@@H]21 [cefoxitin], the MIC [1] is given as 64 µg/mL (≈ 150 µM).
In the case of O=C([O-])CC(O)(CC(=O)[O-])C(=O)O.[Cu+2] [MCC, disodium monocopper (II) citrate], the “suppressing growth of the Mycobacterium immunogenum genotype” value [2] is reported as “ineffective”.
For Cc1cc(NS(=O)(=O)c2ccc(N)cc2)no1 [sulfamethoxazole], the MIC [1] is listed as greater than 64 µg/mL.
In the case of C[C@H]1c2cccc(O)c2C(=O)C2=C(O)[C@]3(O)C(=O)C(C(N)=O)=C(O)[C@@H](N(C)C)[C@@H]3[C@@H](O)[C@@H]21 [doxyxycline], the MIC [1] is listed as greater than 128 µg/mL.
For CO[C@@]1(NC(=O)CSCC#N)C(=O)N2C(C(=O)O)=C(CSc3nnnn3C)CS[C@@H]21 [cefinetazole], the MIC [1] is given as 64 µg/mL (≈ 136 µM).
In the case of NCC[C@H](O)C(=O)N[C@@H]1C[C@H](N)[C@@H](O[C@H]2O[C@H](CN)[C@@H](O)[C@H](O)[C@H]2O)[C@H](O)[C@H]1O[C@H]1O[C@H](CO)[C@@H](O)[C@H](N)[C@H]1O [amikacin], the MIC [1] is given as 128 µg/mL (≈ 219 µM).
